According to patent US12559464B2, “Quinazolinone dione compounds and uses thereof” (Edgewise Therapeutics, Inc., priority 2023, dated 2026):

Assays:
[1] = system: myosin ATPase, Rabbit Psoas myofibrils; experiment: Myofibril ATPase assay, rabbit psoas (skeletal) myofibrils; type: biochemical; details: concentration required to reduce myosin ATP-ase activity by 25%; Rabbit Psoas Prep pCa 25 GEOM_MEAN
Description: [Worded in the source for another species; this species is reported under the same test.] (§1) Myofibril ATPase assays are known in the art to be useful in evaluating small molecules for the treatment of HCM and other cardiac indications. Myosin ATPase activity is assessed by using a coupled reaction system, in which ADP generated by the myosin ATPase function is coupled to the disappearance of NADH through the pyruvate kinase/lactate dehydrogenase (PK-LDH) system. ATPase activity produces ADP, which is used as a substrate for PK to produce pyruvate and regenerate ATP. The pyruvate is then used as a substrate by LDH to oxidize NADH to NAD+. The rate of the reaction is monitored through the time-dependent disappearance of NADH using absorbance at 340 nm, which, when the couple system is in stoichiometric excess, is directly correlated to the ATPase activity of the myosin. Inhibition of ATPase activity by the assayed compounds is indicated by a reduced rate of NADH loss, relative to vehicle-treated controls, over the experimental time window. Porcine Ventricle are the primary sources of myofibril material.
(§2) Materials: The following stock solutions and reagents were used in the Myofibril ATPase Assay: Stock Solutions; PIPES, 200 mM and 120 mM in H2O, pH 7.0; MgCl2 in H2O, 200 mM; PM12 Buffer, 10×: 120 mM PIPES (from 200 mM stock), 20 mM MgCl2 (from 200 mM stock); PBS Buffer, 1X: 135 mM NaCl, […], 10 mM Na(PO4)2, 1.8 mM K2(PO4), pH 7.4; EGTA in H2O, 250 mM; CaCl2) in H2O, 500 mM; DTT in H2O, 1 M; BSA in H2O, 10 mg/mL; ATP in 1×PBS, 50 mM; NADH in 1X PM12 and 1 mM DTT, 26 mM; PEP in 1X PM12, 78 mM, pH 7.0.
(§3) Stock Solutions of pCa buffer. Combine PIPES, CaCl2, and EGTA solutions with water. Adjust pH to 7.0 and bring final volume to 100 mL.
(§4) Buffer A & Buffer B. Prepare buffers A and B according to the table below.
(§5) Myofibril ATPase Assay Procedure: BSA, ATP, NADH, PEP, and DTT solutions were thawed at room temperature, then transferred to ice. Pellet-frozen myofibrils were transferred with approximately twice the required volume into a sufficiently large tube and capped. Myofibrils were thawed by rolling in a water bath for approximately 15 min at room temperature and cooled on ice. Buffers A and B were prepared by adjusting volumes as necessary for required number of wells and stored on ice. 0.5 μL of the compounds to be assayed were added into wells. 25 μL of Buffer A was dispensed into the wells, followed by 25 μL of Buffer B. The wells were measured for absorbance at 340 nm, using a kinetic protocol in which the wells are read every 1.5-2 min for 75 min. Assay data analysis was performed using a python script that filtered the raw data to retain those points falling between a starting and ending time and between a maximum and minimum absorbance, then used the filtered time-domain 340 nm absorbance data in each well to calculate a slope via linear regression analysis in units of mAU/min. Compound slopes were normalized between 100% and 0% activity, where 100% represented the slope of wells containing only compound vehicle, and fit to a 4-parameter logistic model. In addition to the fit parameters, the EC25% values were calculated, relative to the 100% normalized value. Additionally, the Y125 values were calculated for compounds that increased myosin ATP-ase activity. Fit parameters, calculated effective concentrations, filtered raw data, and calculated slopes were exported, in addition to compound-specific graphs of normalized ATPase activity versus concentration in μM. Each value reported in Table 8 is either a Y75 value or a Y125 value. Values without pound sign, #, are Y75 values, which reflect the concentration required to reduce myosin ATP-ase activity by 25% (e.g., Y-axis activity value is 75% of initial value), relative to myosin ATP-ase activity in the absence of exogenous compound. […]

[2] = system: myosin ATPase, Porcine Atria myofibrils; experiment: Myofibril ATPase assay, porcine atria myofibrils; type: biochemical; details: concentration required to reduce myosin ATP-ase activity by 25%; Porcine Atria Prep pCa 25 GEOM_MEAN
[3] = molecular target: T1, myosin ATPase, Porcine Ventricle myofibrils (Sus scrofa, UniProt P79293); experiment: Myofibril ATPase assay, porcine ventricle myofibrils; type: biochemical, porcine (Yucatan minipigs); details: concentration required to reduce myosin ATP-ase activity by 25%; Porcine Ventricle Prep pCa 25 GEOM_MEAN
T1 construct: Myofibrils from porcine cardiac muscle was isolated from the left ventricle of Yucatan minipigs; tissue Exemplar Genetics; host or cells: left ventricle of Yucatan minipigs, myofibrils
T1 sequence (P79293 whole entry): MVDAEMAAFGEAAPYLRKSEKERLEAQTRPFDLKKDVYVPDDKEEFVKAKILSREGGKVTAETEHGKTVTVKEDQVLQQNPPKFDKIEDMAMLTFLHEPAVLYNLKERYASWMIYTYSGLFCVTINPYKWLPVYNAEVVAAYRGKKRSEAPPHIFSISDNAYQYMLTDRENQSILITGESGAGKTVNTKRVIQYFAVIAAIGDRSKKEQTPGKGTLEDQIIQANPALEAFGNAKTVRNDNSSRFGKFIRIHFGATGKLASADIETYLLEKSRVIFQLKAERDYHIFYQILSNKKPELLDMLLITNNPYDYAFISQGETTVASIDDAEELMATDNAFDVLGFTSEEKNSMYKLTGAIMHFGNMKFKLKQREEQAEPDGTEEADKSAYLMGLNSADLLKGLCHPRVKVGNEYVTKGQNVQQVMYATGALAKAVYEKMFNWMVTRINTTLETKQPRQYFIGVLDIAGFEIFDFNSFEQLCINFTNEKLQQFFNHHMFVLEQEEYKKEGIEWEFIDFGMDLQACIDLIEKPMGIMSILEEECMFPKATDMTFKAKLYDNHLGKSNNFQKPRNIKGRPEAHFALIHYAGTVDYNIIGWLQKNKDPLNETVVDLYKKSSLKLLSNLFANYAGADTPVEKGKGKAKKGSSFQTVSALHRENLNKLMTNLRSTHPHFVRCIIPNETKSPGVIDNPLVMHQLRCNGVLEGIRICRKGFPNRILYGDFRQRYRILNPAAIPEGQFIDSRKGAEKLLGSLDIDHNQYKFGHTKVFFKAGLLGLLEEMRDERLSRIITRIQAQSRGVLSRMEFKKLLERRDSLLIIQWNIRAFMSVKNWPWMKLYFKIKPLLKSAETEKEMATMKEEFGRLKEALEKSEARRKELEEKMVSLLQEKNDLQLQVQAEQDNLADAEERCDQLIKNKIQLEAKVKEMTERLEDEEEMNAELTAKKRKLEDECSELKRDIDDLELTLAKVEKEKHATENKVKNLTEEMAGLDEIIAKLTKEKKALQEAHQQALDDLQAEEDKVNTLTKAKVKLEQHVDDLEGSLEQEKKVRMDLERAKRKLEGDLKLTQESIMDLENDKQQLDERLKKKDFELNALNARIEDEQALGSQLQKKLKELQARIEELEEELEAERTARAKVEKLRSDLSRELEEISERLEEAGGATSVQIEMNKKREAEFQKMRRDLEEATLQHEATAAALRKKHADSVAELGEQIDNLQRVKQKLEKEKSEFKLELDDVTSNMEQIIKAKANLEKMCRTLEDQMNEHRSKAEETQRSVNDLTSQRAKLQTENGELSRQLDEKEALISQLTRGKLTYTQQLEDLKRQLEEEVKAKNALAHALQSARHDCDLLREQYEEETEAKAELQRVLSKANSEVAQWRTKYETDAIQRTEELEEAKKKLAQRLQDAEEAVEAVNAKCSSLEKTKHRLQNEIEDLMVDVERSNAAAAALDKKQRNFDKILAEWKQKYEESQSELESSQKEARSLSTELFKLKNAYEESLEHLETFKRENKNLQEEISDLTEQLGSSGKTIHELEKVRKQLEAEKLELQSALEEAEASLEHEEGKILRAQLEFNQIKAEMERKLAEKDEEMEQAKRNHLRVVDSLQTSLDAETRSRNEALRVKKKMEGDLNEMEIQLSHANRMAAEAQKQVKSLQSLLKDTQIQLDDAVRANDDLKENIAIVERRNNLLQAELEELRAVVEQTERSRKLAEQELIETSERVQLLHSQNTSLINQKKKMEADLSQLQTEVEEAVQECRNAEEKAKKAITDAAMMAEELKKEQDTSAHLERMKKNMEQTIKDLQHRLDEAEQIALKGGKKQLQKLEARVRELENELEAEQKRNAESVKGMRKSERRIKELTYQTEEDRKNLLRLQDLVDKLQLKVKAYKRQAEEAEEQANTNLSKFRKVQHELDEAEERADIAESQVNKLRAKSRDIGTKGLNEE
Description: as §1, §2, §3, §4, §5

SMILES | Rabbit Psoas EC25 (Y75 value) [1] [µM] | Porcine Atria EC25 (Y75 value) [2] [µM] | Porcine Ventricle EC25 (Y75 value) [3] [µM]
C[C@H](NC(=O)[C@@H](C)n1c(=O)[nH]c2ccccc2c1=O)c1ccc(F)cc1F (single isomer, unassigned) [Compound 101] | 1.521 | 1.036 | 87.37
C[C@H](NC(=O)[C@H](C)n1c(=O)[nH]c2ccccc2c1=O)c1ccc(F)cc1F (single isomer, unassigned) [Compound 102] | 0.761 | 1.175 | 99.13
C[C@H](NC(=O)Cn1c(=O)[nH]c2cccc(F)c2c1=O)c1ncc(C#N)cn1 (single isomer, unassigned) [Compound 202] | 7.437 | 8.617 | 100
C[C@H](NC(=O)Cn1c(=O)[nH]c2cccc(C#N)c2c1=O)c1ncc(C#N)cn1 (single isomer, unassigned) [Compound 204] | 100 | 100 | 70.61
C[C@@H](NC(=O)Cn1c(=O)[nH]c2cccc(F)c2c1=O)c1ncc(C#N)cc1F (single isomer, unassigned) [Compound 207] | 4.593 | 100 | 100
C[C@H](NC(=O)Cn1c(=O)[nH]c2cccc(F)c2c1=O)c1ncc(C#N)cc1F (single isomer, unassigned) [Compound 208] | 0.065 | 0.085 | 0.254
C[C@@H](NC(=O)Cn1c(=O)[nH]c2ccc(F)cc2c1=O)c1cnc(C#N)nc1 (single isomer, unassigned) [Compound 209] | 39.51 | 100 | 100
C[C@H](NC(=O)Cn1c(=O)[nH]c2ccc(F)cc2c1=O)c1cnc(C#N)nc1 (single isomer, unassigned) [Compound 210] | 0.174 | 0.118 | 0.559
C[C@H](NC(=O)[C@H](CC1CC1)n1c(=O)[nH]c2ccccc2c1=O)c1ncc(F)cc1F (single isomer, unassigned) [Compound 211] | 100 | 100 | 100
C[C@H](NC(=O)[C@@H](CC1CC1)n1c(=O)[nH]c2ccccc2c1=O)c1ncc(F)cc1F (single isomer, unassigned) [Compound 212] | 100 | 100 | 100
C[C@H](NC(=O)[C@H](CC1CC1)n1c(=O)[nH]c2ccccc2c1=O)c1ccc(F)cc1F (single isomer, unassigned) [Compound 501] | 84.531 | 100 | 50.21
C[C@H](NC(=O)[C@@H](CC1CC1)n1c(=O)[nH]c2ccccc2c1=O)c1ccc(F)cc1F (single isomer, unassigned) [Compound 502] | 13.814 | 43.27 | 100
Cc1cc(F)ccc1[C@H](C)NC(=O)Cn1c(=O)[nH]c2ccccc2c1=O (single isomer, unassigned) [Compound 503] | 0.36 | 0.1046 | 1.526
